Data reported in patent publication US5905068A, “Retroviral protease inhibiting compounds” (Abbott Laboratories, priority 1996, dated 1999).

How the values were obtained:
[1] = Cytotoxicity in uninfected MT4 cells (MTT); assay type: cell-based; conditions: human, 5 days, n=four duplicate determinations, read-out: CTC50 (50% cytotoxicity concentration)
Protocol: The anti-HIV activity of the compound of the invention was determined in MF4 cells according to the following procedure: MT4 cells were infected with cell-free supernatant of HIVIIIB (previously frozen with known 50% tissue culture infectious dose (TCID50) at 0.003 multiplicity of infection (MOI)) for one hour. After one hour infection, cells were washed twice to remove residual viruses, resuspended in culture media and seeded into 96-well tissue culture plates at 1×10^4 cells per well with various half-log dilutions of compounds. Uninfected cells were included a toxicity and cell controls. […] All assay plates were incubated in a 37° C. incubator for 5 days. […] SDS (20%) with 0.02N HCl in water was added at 50 μL per well to lyse cells. Plates were incubated overnight for complete cell lysis and then read on a microtiter plate reader at 570/650 nm wavelengths to determine cell optical density (O.D.). Raw data was analysed for percent inhibition by the following formula: [formula]
The 50% cytotoxicity concentration (CTC50) was calculated using uninfected MT4 cells

HIV-1 protease = HIV-1 protease (Human immunodeficiency virus type 1 group M subtype B, UniProt P04585); test: Fluorogenic Assay for Screening Inhibitors of HIV Protease; conditions: pH 4.5
Protocol: The inhibitory potency of the compounds of the invention were determined by the following method: The compound of the invention was dissolved in DMSO and a small aliquot further diluted with DMSO to 100 times the final concentration desired for testing. The reaction was carried out in a 6×50 mm tube in a total volume of 300 microliters. […] After addition of inhibitor, the reaction mixture was placed in the fluorometer cell holder and incubated at 30° C. for several minutes. The reaction was initiated by the addition of a small aliquot of cold HIV protease. The fluorescence intensity (excitation 340 nm, emission 490 nm) was recorded as a function of time. The reaction rate was determined for the first six to eight minutes. The observed rate was directly proportional to the moles of substrate cleaved per unit time. The percent inhibition was calculated according to the equation: 100×(1-(rate of inhibitor)/(rate in absence of inhibitor)). As a control, duplicate reactions were performed identically as above but without the addition of an inhibitor compound.

HIVIIIB = test: Antiviral Activity: anti-HIV activity in MT4 cells infected with HIVIIIB (MTT); assay type: cell-based; conditions: Human immunodeficiency virus 1, 120 h, MOI 0.003, 5 days, n=four duplicate determinations
Protocol: The anti-HIV activity of the compound of the invention was determined in MF4 cells according to the following procedure: MT4 cells were infected with cell-free supernatant of HIVIIIB (previously frozen with known 50% tissue culture infectious dose (TCID50) at 0.003 multiplicity of infection (MOI)) for one hour. After one hour infection, cells were washed twice to remove residual viruses, resuspended in culture media and seeded into 96-well tissue culture plates at 1×10^4 cells per well with various half-log dilutions of compounds. Uninfected cells were included a toxicity and cell controls. RPMI 1640 media (GIBCO) with 10% fetal bovine serum was used as culture media. Various concentrations (50%, 25% and 12.5%) of human serum (SIGMA) were added to culture media resulting in final concentrations of 60%, 35% and 22.5% total serum. All assay plates were incubated in a 37° C. incubator for 5 days. The compound 3-[4,5-dimethylthiozol-2-yl]-2,5-diphenyltetrazolium bromide (MTT, SIGMA, 5 mg .mL stock in PBS) was then added to all wells at 25 μL per well and incubated for 4 hours. SDS (20%) with 0.02N HCl in water was added at 50 μL per well to lyse cells. Plates were incubated overnight for complete cell lysis and then read on a microtiter plate reader at 570/650 nm wavelengths to determine cell optical density (O.D.). Raw data was analysed for percent inhibition by the following formula: [formula]
The 50% effective concentration (EC50) was calculated by the median effect equation (Chou, 1975, Proc. Int. Cong. Pharmacol. 6th p. 619) to determine the efficacy of compound. The 50% cytotoxicity concentration (CTC50) was calculated using uninfected MT4 cells
Under these conditions, the data of Table 2 was obtained (n=four duplicate determinations).

SMILES	CC50 at 120 h [1] [nM]	inhibition at 0.0005 µM (HIV-1 protease) [%]	EC50 (HIVIIIB) [nM]	inhibition at 0.001 µM (HIV-1 protease) [%]	inhibition at 0.0014 µM (HIV-1 protease) [%]
CC(C)[C@H](NC(=O)OCc1cncs1)C(=O)N[C@@H](Cc1ccccc1)C[C@H](O)[C@H](Cc1ccccc1)NC(=O)O[C@H]1CO[C@H]2OCC[C@H]21 [Example 42, (2S,3S,5S)-5-(N-(N-((5-Thiazolyl)methoxycarbonyl)-L-valinyl)amino)-2-((3R,3aS,6aR)-bis-tetrahydrofuran-3-yl-oxycarbonyl)amino-1,6-diphenyl-3-hydroxyhexane]	> 100000	80	70		
CC(C)[C@@H](NC(=O)OCc1cncs1)C(=O)N[C@@H](Cc1ccccc1)C[C@H](O)[C@H](Cc1ccccc1)NC(=O)O[C@H]1CO[C@H]2OCC[C@H]21 [Example 43, (2S,3S,5S)-5-(N-(N-((5-Thiazolyl)methoxycarbonyl)-D-valinyl)amino)-2-((3R,3aS,6aR)-bis-tetrahydrofuran-3-yl-oxycarbonyl)amino-1,6-diphenyl-3-hydroxyhexane]	> 100000	42	270		
CC(C)[C@@H](NC(=O)N(C)Cc1cncs1)C(=O)N[C@@H](Cc1ccccc1)C[C@H](O)[C@H](Cc1ccccc1)NC(=O)O[C@H]1CO[C@H]2OCC[C@H]21 [Example 44, (2S,3S,5S)-5-(N-(N-((N-Methyl-N-((5-thiazolyl)methyl)amino)carbonyl)-D-valinyl)amino)-2-((3R,3aS,6aR)-bis-tetrahydrofuran-3-yl-oxycarbonyl)amino-1,6-diphenyl-3-hydroxyhexane]	> 100000	72	370		
CC(C)[C@H](NC(=O)N(C)Cc1cncs1)C(=O)N[C@@H](Cc1ccccc1)C[C@H](O)[C@H](Cc1ccccc1)NC(=O)O[C@H]1CO[C@H]2OCC[C@H]21 [Example 45, (2S,3S,5S)-5-(N-(N-((N-Methyl-N-((5-thiazolyl)methyl)amino)carbonyl)-L-valinyl)amino)-2-((3R,3aS,6aR)-bis-tetrahydrofuran-3-yl-oxycarbonyl)amino-1,6-diphenyl-3-hydroxyhexane]	> 100000	56	450		
CC(C)c1nc(CN(C)C(=O)N[C@H](C(=O)N[C@@H](Cc2ccccc2)[C@@H](O)C[C@H](Cc2ccccc2)NC(=O)O[C@H]2CO[C@H]3OCC[C@H]32)C(C)C)cs1 [Example 46, (2S,3S,5S)-2-(N-(N-((N-Methyl-N-((2-isopropyl-4-thiazolyl)methyl)amino)carbonyl)-L-valinyl)amino)-5-((3R,3aS,6aR)-bis-tetrahydrofuran-3-yl-oxycarbonyl)amino-1,6-diphenyl-3-hydroxyhexane]	56200	74	34		
Cc1nc(CN(C)C(=O)N[C@H](C(=O)N[C@@H](Cc2ccccc2)C[C@H](O)[C@H](Cc2ccccc2)NC(=O)O[C@@H]2CO[C@@H]3OCC[C@@H]32)C(C)C)cs1 [Example 47, (2S,3S,5S)-5-(N-(N-((N-Methyl-N-((2-methyl-4-thiazolyl)methyl)amino)carbonyl)-L-valinyl)amino)-2-((3S,3aR,6aS)-bis-tetrahydrofuran-3-yl-oxycarbonyl)amino-1,6-diphenyl-3-hydroxyhexane]	> 100000	82	55		
CC(C)c1nc(CN(C)C(=O)N[C@H](C(=O)N[C@@H](Cc2ccccc2)C[C@H](O)[C@H](Cc2ccccc2)NC(=O)O[C@@H]2CO[C@@H]3OCC[C@@H]32)C(C)C)cs1 [Example 48, (2S,3S,5S)-5-(N-(N-((N-Methyl-N-((2-isopropyl-4-thiazolyl)methyl)amino)carbonyl)-L-valinyl)amino)-2-((3S,3aR,6aS)-bis-tetrahydrofuran-3-yl-oxycarbonyl)amino-1,6-diphenyl-3-hydroxyhexane]	46600	80	11		
Cc1nc(CN(C)C(=O)N[C@H](C(=O)N[C@@H](Cc2ccccc2)C[C@H](O)[C@H](Cc2ccccc2)NC(=O)O[C@H]2CO[C@H]3OCC[C@H]32)C(C)C)cs1 [Example 49, (2S,3S,5S)-5-(N-(N-((N-Methyl-N-((2-methyl-4-thiazolyl)methyl)amino)carbonyl)-L-valinyl)amino)-2-((3R,3aS,6aR)-bis-tetrahydrofuran-3-yl-oxycarbonyl)amino-1,6-diphenyl-3-hydroxyhexane]	> 100000	74	42		
CC(C)c1nc(CN(C)C(=O)N[C@H](C(=O)N[C@@H](Cc2ccccc2)C[C@H](O)[C@H](Cc2ccccc2)NC(=O)O[C@H]2CCOC2)C(C)C)cs1 [Example 50, (2S,3S,5S)-5-(N-(N-((N-Methyl-N-((2-isopropyl-4-thiazolyl)methyl)amino)carbonyl)-L-valinyl)amino)-2-(3S-tetrahydrofuran-3-yl-oxycarbonyl)amino-1,6-diphenyl-3-hydroxyhexane]	56200	68	32		
CC(C)c1nc(CN(C)C(=O)NC(C(=O)NC(Cc2ccccc2)CC(O)C(Cc2ccccc2)NC(=O)OC2COC3OCCC23)C(C)C)cs1 [Example 51, (2S,3S,5S)-5-(N-(N-((N-Methyl-N-((2-isopropyl-4-thiazolyl)methyl)amino)carbonyl)-D-valinyl)amino)-2-((3R,3aS,6aR)-bis-tetrahydrofuran-3-yl-oxycarbonyl)amino-1,6-diphenyl-3-hydroxyhexane]	> 100000	83	12		
Cc1nc(CN(C)C(=O)N[C@H](C(=O)N[C@@H](Cc2ccccc2)C[C@H](O)[C@H](Cc2ccccc2)NC(=O)OC2COC3OCCC23)C(C)C)cs1 (stereo partly drawn) [Example 52, (2S,3S,5S)-5-(N-(N-((N-Methyl-N-((2-methyl-4-thiazolyl)methyl)amino)carbonyl)-L-valinyl)amino)-2-((3R,3aS,6aR),(3S,3aR,6aS)-bis-tetrahydrofuran-3-yl-oxycarbonyl)amino-1,6-diphenyl-3-hydroxyhexane]	> 100000	69	72		
O=C(N[C@@H](Cc1ccccc1)[C@@H](O)C[C@H](Cc1ccccc1)NC(=O)c1ccc(O)cc1)O[C@@H]1CO[C@@H]2OCC[C@@H]21 [Example 53, (2S,3S,5S)-5-(4-Hydroxy-benzoyl)amino-2-((3S,3aR,6aS)-bis-tetrahydrofuran-3-yl-oxycarbonyl)amino-1,6-diphenyl-3-hydroxyhexane]	> 100000		704	56	
CC(=O)Oc1ccc(C(=O)N[C@@H](Cc2ccccc2)C[C@H](O)[C@H](Cc2ccccc2)NC(=O)O[C@H]2CO[C@H]3OCC[C@H]32)cc1 [Example 54, (2S,3S,5S)-5-(4-Acetoxy-benzoyl)amino-2-((3R,3aS,6aR)-bis-tetrahydrofuran-3-yl-oxycarbonyl)amino-1,6-diphenyl-3-hydroxyhexane]	> 100000		145		50
O=C(N[C@@H](Cc1ccccc1)[C@@H](O)C[C@H](Cc1ccccc1)NC(=O)c1ccc(O)cc1)O[C@H]1CO[C@H]2OCC[C@H]21 [Example 55, (2S,3S,5S)-5-(4-Hydroxy-benzoyl)amino-2-((3R,3aS,6aR)-bis-tetrahydrofuran-3-yl-oxycarbonyl)amino-1,6-diphenyl-3-hydroxyhexane]	49500	82	11		
